Measured values from US20110082130A1 (LIGAND PHARMACEUTICALS, INC., priority 2006, published 2011).

Molecular target: T1, chimeric human H3 receptor (Homo sapiens, UniProt Q9Y5N1)
T1 construct: made in house; host or cells: Sf9 insect cells (baculovirus); P2 membrane preparation
Assay: Chimeric human H3 receptor GTP binding assay (agonist-stimulated GTP-gamma35S binding, Example 7)
Format: biochemical
Settings: Table I; P2 membranes of Sf9 cells, 1 μM histamine as agonist, Ki from IC50 by Cheng-Prusoff
Outline: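 Sf9 membranes co-expressing chimeric human H3 receptor and heterotrimeric G-protein, 35 μg/tube, in pH 7.4 Tris buffer with 10 μM GDP. Test compounds (10^−10–10^−6 M) competed against 1 μM histamine, […] GTP-gamma35S, 60 min at room temperature. Filter-bound radioactivity counted; IC50 converted to Ki by Cheng-Prusoff. Agonism/inverse agonism tested without histamine (EC50).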

T1 sequence (Q9Y5N1 with tags, fused parts or gaps): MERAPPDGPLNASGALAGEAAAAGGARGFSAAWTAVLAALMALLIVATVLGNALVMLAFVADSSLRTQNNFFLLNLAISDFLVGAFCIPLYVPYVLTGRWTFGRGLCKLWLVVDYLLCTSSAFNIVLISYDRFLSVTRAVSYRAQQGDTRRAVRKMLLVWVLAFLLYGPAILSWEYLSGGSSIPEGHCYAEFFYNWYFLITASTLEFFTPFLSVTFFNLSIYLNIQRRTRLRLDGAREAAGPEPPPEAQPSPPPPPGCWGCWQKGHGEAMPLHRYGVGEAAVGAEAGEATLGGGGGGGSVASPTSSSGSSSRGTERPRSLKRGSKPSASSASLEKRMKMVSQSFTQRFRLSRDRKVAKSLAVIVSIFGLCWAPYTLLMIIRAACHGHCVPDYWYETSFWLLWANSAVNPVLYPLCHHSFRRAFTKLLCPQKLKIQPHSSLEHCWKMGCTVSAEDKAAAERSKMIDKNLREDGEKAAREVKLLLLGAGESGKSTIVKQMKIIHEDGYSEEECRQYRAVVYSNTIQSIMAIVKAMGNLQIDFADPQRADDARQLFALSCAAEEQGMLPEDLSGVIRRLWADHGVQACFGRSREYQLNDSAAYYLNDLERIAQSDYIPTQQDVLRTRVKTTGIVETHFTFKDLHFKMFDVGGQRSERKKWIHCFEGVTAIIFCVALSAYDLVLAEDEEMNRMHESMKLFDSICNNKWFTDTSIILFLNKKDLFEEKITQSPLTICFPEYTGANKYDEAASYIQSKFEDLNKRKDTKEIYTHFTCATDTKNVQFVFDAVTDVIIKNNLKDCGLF

Ki, < 1000 nM:
O=C(CN1CCc2cc(Br)ccc2C1c1ccccc1Cl)N1CCN(C2CCC2)CC1 (stereo not drawn) [Compound 63, 6-bromo-1-(2-chlorophenyl)-2-[2-(4-cyclobutylpiperazin-1-yl)-2-oxoethyl]-1,2,3,4-tetrahydroisoquinoline]

Same assay, conditions: Table II "Ki", symbol *; assay of Example 7

Ki, < 1000 nM:
COC[C@H]1CCCN1c1ccc2c(n1)CCN(CC(=O)N1CCN(C3CCC3)CC1)C2 [Compound 679, 6-[2-(4-cyclobutylpiperazin-1-yl)-2-oxoethyl]-2-[(2R)-2-(methoxymethyl)pyrrolidin-1-yl]-5,6,7,8-tetrahydro-1,6-naphthyridine]
CN(C)CCc1ccc(-c2ccc3c(c2)CCN(CC(=O)N2CCN(C4CCC4)CC2)C3)cc1 [Compound 645, 2-(4-{2-[2-(4-cyclobutylpiperazin-1-yl)-2-oxoethyl]-1,2,3,4-tetrahydroisoquinolin-6-yl}phenyl)-N,N-dimethylethanamine]
O=C(CN1CCc2cc(-c3cccc4[nH]ccc34)ccc2C1)N1CCN(C2CCC2)CC1 [Compound 639, 2-[2-(4-cyclobutylpiperazin-1-yl)-2-oxoethyl]-6-(1H-indol-4-yl)-1,2,3,4-tetrahydroisoquinoline]
CN(c1ccc2c(n1)CCN(CC(=O)N1CCN(C3CCC3)CC1)C2)C1CCCCC1 [Compound 677, 6-[2-(4-cyclobutylpiperazin-1-yl)-2-oxoethyl]-N-cyclohexyl-N-methyl-5,6,7,8-tetrahydro-1,6-naphthyridin-2-amine]
C[C@H]1CN(C(=O)CN2CCc3cc(-c4cncnc4)ccc3C2)CCN1C1CCCC1 [Compound 610, 2-{2-[(3S)-4-cyclopentyl-3-methylpiperazin-1-yl]-2-oxoethyl}-6-pyrimidin-5-yl-1,2,3,4-tetrahydroisoquinoline]
COc1cccc(-c2ccc3c(c2)CCN(CC(=O)N2CCN(C4CCC4)CC2)C3)n1 [Compound 633, 2-[2-(4-cyclobutylpiperazin-1-yl)-2-oxoethyl]-6-(6-methoxypyridin-2-yl)-1,2,3,4-tetrahydroisoquinoline]
COCC1CCN(c2ccc3c(n2)CCN(CC(=O)N2CCN(C4CCC4)CC2)C3)CC1 [Compound 673, 6-[2-(4-cyclobutylpiperazin-1-yl)-2-oxoethyl]-2-[4-(methoxymethyl)piperidin-1-yl]-5,6,7,8-tetrahydro-1,6-naphthyridine]
COc1ccc2cc(-c3ccc4c(c3)CCN(CC(=O)N3CCN(C5CCC5)CC3)C4)ccc2c1 [Compound 509, 2-[2-(4-cyclobutylpiperazin-1-yl)-2-oxoethyl]-6-(6-methoxy-2-naphthyl)-1,2,3,4-tetrahydroisoquinoline]

Same assay, conditions: Table II; "*" = Ki in assay of Example 7 less than 1 micromolar

Ki, < 1000 nM:
CC(O)c1ccc2c(c1)CCN(CC(=O)N1CCN(C3CCC3)CC1)C2 (stereo not drawn) [Compound 219, 1-{2-[2-(4-cyclobutylpiperazin-1-yl)-2-oxoethyl]-1,2,3,4-tetrahydroisoquinolin-6-yl}ethanol]
O=C(CN1CCc2[nH]c(=O)ccc2C1)N1CCN(C2CCCC2)CC1 [Compound 133, 6-[2-(4-cyclopentylpiperazin-1-yl)-2-oxoethyl]-5,6,7,8-tetrahydro-1,6-naphthyridin-2(1H)-one]
N#Cc1ccc(-n2cc3c(n2)CCN(CC(=O)N2CCN(C4CCC4)CC2)C3)nn1 [Compound 203, 6-{5-[2-(4-cyclobutylpiperazin-1-yl)-2-oxoethyl]-4,5,6,7-tetrahydro-2H-pyrazolo[4,3-c]pyridin-2-yl}pyridazine-3-carbonitrile]
CC1(N2CCN(C(=O)CN3CCc4cc(-c5cncnc5)ccc4C3)CC2)CCC1 [Compound 169, 2-{2-[4-(1-methylcyclobutyl)piperazin-1-yl]-2-oxoethyl}-6-pyrimidin-5-yl-1,2,3,4-tetrahydroisoquinoline]
O=C(CN1CCc2cc(-c3ccccn3)ccc2C1)N1CCN(C2CCC2)CC1 [Compound 130, 2-[2-(4-cyclobutylpiperazin-1-yl)-2-oxoethyl]-6-pyridin-2-yl-1,2,3,4-tetrahydroisoquinoline]
O=C(CN1CCc2nc(-c3cncnc3)sc2C1)N1CCCC1CN1CCCC1 (stereo not drawn) [Compound 110, 5-{2-oxo-2-[2-(pyrrolidin-1-ylmethyl)pyrrolidin-1-yl]ethyl}-2-pyrimidin-5-yl-4,5,6,7-tetrahydro[1,3] thiazolo [5,4-c]pyridine]

Same assay, conditions: Table II; assay of Example 7

Ki, < 1000 nM:
Cc1nnc2ccc(-n3cc4c(n3)CCN(CC(=O)N3CCN(C5CCC5)CC3)C4)nn12 [Compound 689, 6-{5-[2-(4-cyclobutylpiperazin-1-yl)-2-oxoethyl]-4,5,6,7-tetrahydro-2H-pyrazolo[4,3-c]pyridin-2-y1}-3-methyl[1,2,4]triazolo [4,3-b]pyridazine]

Same assay, conditions: assay of Example 7; "*" in Ki of Table II

Ki, < 1000 nM:
Cc1cccc(-c2nc3c(s2)CN(CC(=O)N2CCN(C4CCC4)CC2)CC3)c1 [Compound 304, 5-[2-(4-cyclobutylpiperazin-1-yl)-2-oxoethyl]-2-(3-methylphenyl)-4,5,6,7-tetrahydro[1,3]thiazolo [5,4-c]pyridine]
CCCOc1ccc(-c2nc3c(s2)CN(CC(=O)N2CCN(C4CCC4)CC2)CC3)cc1 [Compound 334, 5-[2-(4-cyclobutylpiperazin-1-yl)-2-oxoethyl]-2-(4-propoxyphenyl)-4,5,6,7-tetrahydro[1,3]thiazolo [5,4-c]pyridine]
CS(=O)(=O)c1ccc(-c2ccc3c(c2)CCN(CC(=O)N2CCN(C4CCC4)CC2)C3)cc1 [Compound 389, 2-[2-(4-cyclobutylpiperazin-1-yl)-2-oxoethyl]-6-[4-(methylsulfonyl)phenyl]-1,2,3,4-tetrahydroisoquinoline]
O=C(CN1CCc2cc(-c3ccc4c(c3)OCO4)ccc2C1)N1CCN(C2CCCC2)CC1 [Compound 378, 6-(1,3-benzodioxol-5-yl)-2-[2-(4-cyclopentylpiperazin-1-yl)-2-oxoethyl]-1,2,3,4-tetrahydroisoquinoline]
O=C(CN1CCc2nc(-c3ccccc3)sc2C1)N1CCN(C2CCC2)CC1 [Compound 294, 5-[2-(4-cyclobutylpiperazin-1-yl)-2-oxoethyl]-2-phenyl-4,5,6,7-tetrahydro[1,3]thiazolo [5,4-c]pyridine]
COc1ccc(C)cc1-c1nc2c(s1)CN(CC(=O)N1CCN(C3CCC3)CC1)CC2 [Compound 344, 5-[2-(4-cyclobutylpiperazin-1-yl)-2-oxoethyl]-2-(2-methoxy-5-methylphenyl)-4,5,6,7-tetrahydro[1,3]thiazolo [5,4-c]pyridine]
CCCc1ccc(-c2nc3c(s2)CN(CC(=O)N2CCN(C4CCC4)CC2)CC3)cc1 [Compound 312, 5-[2-(4-cyclobutylpiperazin-1-yl)-2-oxoethyl]-2-(4-propylphenyl)-4,5,6,7-tetrahydro[1,3]thiazolo [5,4-c]pyridine]
CCOc1cccc(-c2nc3c(s2)CN(CC(=O)N2CCN(C4CCC4)CC2)CC3)c1 [Compound 317, 5-[2-(4-cyclobutylpiperazin-1-yl)-2-oxoethyl]-2-(3-ethoxyphenyl)-4,5,6,7-tetrahydro[1,3]thiazolo [5,4-c]pyridine]
